Secretion data for 12 compounds are collected here from ChEMBL document CHEMBL1127056, “3-(Alkylamino)-4H-pyrido[4,3-e]-1,2,4-thiadiazine 1,1-dioxides as powerful inhibitors of insulin release from rat pancreatic B-cells: a new class of potassium channel openers?” (1993).

What all share (format): functional
The species named for assay [1] is Rattus norvegicus. Put plainly: Inhibition of insulin release from rat pancreatic islets incubated in the presence of glucose ([…]) at concentration of 1 uM.
The species named for assay [2] is Rattus norvegicus. The assay is described as follows: Inhibition of insulin release from rat pancreatic islets incubated in the presence of glucose ([…]) at concentration of 10 uM.
The species named for assay [3] is Rattus norvegicus. The assay is described as follows: Inhibition of insulin release from rat pancreatic islets incubated in the presence of glucose ([…]) at concentration of 100 uM.
For assay [4], the species on record is Rattus norvegicus. The assay is described as follows: Inhibition of insulin release from rat pancreatic islets incubated in the presence of glucose ([…]) at concentration of 50 uM.
For assay [5], the species on record is Rattus norvegicus. Put plainly: Inhibition of insulin release from rat pancreatic islets incubated in the presence of glucose ([…]) at concentration of 500 uM.

Turning to `CC1=Nc2ccc(Cl)cc2S(=O)(=O)N1` [DIAZOXIDE], the Secretion is 78.9% in the assay listed under Rattus norvegicus [1]; 70% in the assay filed under Rattus norvegicus [2]; 14% in the assay filed under Rattus norvegicus [3]; 28.8% in the assay listed under Rattus norvegicus [4]; 8.5% in the assay listed under Rattus norvegicus [5].
On the same counts, the results for `O=S1(=O)N=C(NC2CCCC2)Nc2ccncc21` are 82.8%, 71.1%, 9.2%, 31.5% and 4.4%.
The matching figures for `CC(C)CNC1=NS(=O)(=O)c2cnccc2N1`: 84.2%, 71.8%, 10.2%, 23.4% and 9.7%.
On the same counts, the results for `CC(C)C(C)NC1=NS(=O)(=O)c2cc(Cl)ccc2N1` (configuration not stated) are 88.9%, 62.7%, 6.5%, 11% and 4.6%.
With `CCCCNC1=NS(=O)(=O)c2cnccc2N1`, the Secretion was found to be 83.7% in the assay listed under Rattus norvegicus [1]; 82% in the assay listed under Rattus norvegicus [2]; 32.5% in the assay filed under Rattus norvegicus [3]; 38.6% in the assay listed under Rattus norvegicus [4]; 9% in the assay listed under Rattus norvegicus [5].
On the same counts, the results for `CC(C)C(C)NC1=NS(=O)(=O)c2cnccc2N1` (configuration not stated) are 70.5%, 13.7%, 8.8%, 8.6% and 8.4%.
For the compound `CCC(C)NC1=NS(=O)(=O)c2cnccc2N1` (configuration not stated), the Secretion is 97.8% in the assay listed under Rattus norvegicus [1]; 49% in the assay filed under Rattus norvegicus [2]; 7.1% in the assay listed under Rattus norvegicus [3]; 9.4% in the assay filed under Rattus norvegicus [4]; 9.4% in the assay listed under Rattus norvegicus [5].
With `O=S1(=O)N=C(NN2CCOCC2)Nc2ccncc21`, the Secretion in the assay listed under Rattus norvegicus [4] is listed as 94.8%.
With `CCCNC1=NS(=O)(=O)c2cnccc2N1`, the Secretion worked out at 97.1% in the assay listed under Rattus norvegicus [1]; 87.3% in the assay listed under Rattus norvegicus [2]; 21.9% in the assay filed under Rattus norvegicus [3]; 57.7% in the assay listed under Rattus norvegicus [4]; 9% in the assay listed under Rattus norvegicus [5].
The matching figures for `CC(C)NC1=NS(=O)(=O)c2cnccc2N1`: 110.3%, 55.3%, 18.4%, 42.5% and 8.8%.
The matching figures for `O=S1(=O)N=C(NC2CCCCC2)Nc2ccncc21`: 74.4%, 64.4%, 18.4%, 40.5% and 6.2%.
For `NC1=NS(=O)(=O)c2cnccc2N1`, in the assay listed under Rattus norvegicus [4], the Secretion worked out at 104.1%.
